{"source": "paper PMC7701510", "about": "“Identification of HN252 as a potent inhibitor of protein phosphatase PPM1B” (Journal of Cellular and Molecular Medicine, 2020)", "assay_type_in_all_cases": "biochemical", "key": {"PPM1K": {"target": "T1, PPM1K (Homo sapiens, UniProt Q8N3J5)", "T1 sequence (Q8N3J5 30-372)": "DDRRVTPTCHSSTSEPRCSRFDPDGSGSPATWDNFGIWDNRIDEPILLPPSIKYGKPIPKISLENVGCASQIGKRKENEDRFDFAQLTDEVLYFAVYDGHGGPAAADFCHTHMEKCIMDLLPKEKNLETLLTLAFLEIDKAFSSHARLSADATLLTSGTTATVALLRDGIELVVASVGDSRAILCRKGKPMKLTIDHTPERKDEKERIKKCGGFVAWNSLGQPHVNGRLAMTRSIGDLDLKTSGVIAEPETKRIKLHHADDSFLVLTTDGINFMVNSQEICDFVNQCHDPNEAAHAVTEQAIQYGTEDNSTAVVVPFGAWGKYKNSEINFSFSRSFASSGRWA", "experiment": "pNPP hydrolysis phosphatase assay (selectivity panel)", "conditions": "pNPP as substrate"}, "PPM1B-K170A": {"target": "T2, PPM1B-K170A (Homo sapiens, UniProt O75688, K170A)", "T2 construct": "inferred from pET-28a vector and Ni-NTA purification; made in house; host or cells: Escherichia coli BL21", "T2 sequence (O75688 1-479 K170A)": "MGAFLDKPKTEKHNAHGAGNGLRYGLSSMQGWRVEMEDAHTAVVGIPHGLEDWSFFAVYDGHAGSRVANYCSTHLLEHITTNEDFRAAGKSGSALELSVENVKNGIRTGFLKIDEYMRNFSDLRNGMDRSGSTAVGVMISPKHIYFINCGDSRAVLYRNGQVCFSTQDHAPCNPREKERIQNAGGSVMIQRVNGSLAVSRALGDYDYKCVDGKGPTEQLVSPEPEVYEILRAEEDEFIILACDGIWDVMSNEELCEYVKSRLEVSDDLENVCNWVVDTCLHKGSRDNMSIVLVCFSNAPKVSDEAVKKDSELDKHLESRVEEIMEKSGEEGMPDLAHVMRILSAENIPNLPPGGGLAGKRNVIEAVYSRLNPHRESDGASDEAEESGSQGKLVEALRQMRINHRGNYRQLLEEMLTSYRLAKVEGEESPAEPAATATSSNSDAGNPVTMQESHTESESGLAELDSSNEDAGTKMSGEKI", "experiment": "pNPP hydrolysis assay with PPM1B mutant", "conditions": "pNPP substrate, pH 7.0, 37°C", "description": "(§1) Escherichia coli BL21 strain was transformed with pET‐28a bacterial expression vector harbouring PPM1B and its mutants. ^17 The fusion proteins were induced to be expressed with 0.5 mM isopropyl‐β‐D‐thiogalactoside (IPTG) and purified from bacterial lysate by Ni‐NTA chromatographic matrices (Qiagen) and AKTA FPLC (GE Healthcare Life Sciences) using a Superdex Increase 200 column.\n(§2) The kinetic assays of PPM1B were carried out at 37°C in 0.1 M acetic acid buffer (50 mM Tris, 40 mM Mn^2+, pH 7.0). The p‐nitrophenyl phosphate (pNPP, Sigma) was used as the substrate which could be conveniently measured at 405 nm. Reactions were started by addition of pNPP to a reaction mixture containing PPM1B (0.4 μM PPM1B, final concentration) and various concentrations of HN252 and stopped by addition of 0.5 M EDTA (pH 10.0) after an appropriate time. The Km value of PPM1B towards pNPP hydrolysis (3.6 mM for pNPP) was used to determine the IC50. The IC50 values, the inhibition constant Ki and inhibition pattern were evaluated as previously described. ^18 The kinetic assays of HN252 towards to other protein phosphatases were carried out as previously described. ^19"}, "PPM1B-R33K": {"target": "T3, PPM1B-R33K (Homo sapiens, UniProt O75688, R33K)", "T3 construct": "inferred from pET-28a vector and Ni-NTA purification; made in house; host or cells: Escherichia coli BL21", "T3 sequence (O75688 1-479 R33K)": "T2 sequence (O75688 1-479 K170A) with R33K, A170K", "experiment": "pNPP hydrolysis assay with PPM1B mutant", "conditions": "pNPP substrate, pH 7.0, 37°C", "description": "as §1, §2"}}, "note": "Substitutions are numbered along the chain they refer to.", "data": [{"smiles": "Nc1cc(-c2ccc(-c3ccc(O)c(O)c3)cc2)ccc1C(=O)O", "note": "[HN252]", "values": [{"measurement": "IC50", "setting": "PPM1K", "result": "27.4 ± 3.92", "unit": "µM"}, {"measurement": "IC50", "setting": "PPM1B-K170A", "result": "30.1 ± 5.7", "unit": "µM"}, {"measurement": "IC50", "setting": "PPM1B-R33K", "result": "58.6 ± 10", "unit": "µM"}]}]}
